# Legend:
# [1] = tested on: CFA induced thermal hypersensitivity (radiant heat paw withdrawal latency); assay: Complete Freund's Adjuvant (CFA)-induced Model of Inflammatory Pain; format: in vivo, Sprague-Dawley rats; conditions: 560 mg/kg oral; 4 hr after oral administration
# Protocol: Intraplantar injection of CFA in rats results in a long-lasting inflammatory reaction, characterized by edema and a pronounced hypersensitivity to both thermal and mechanical stimuli. This hypersensitivity peaks between 24-72 hours after injection and can last for several weeks. This assay predicts the analgesic, antiallodynic and/or antihyperalgesic effect of test compounds.
# Test compound and controls were dissolved in the appropriate volume of 0.5% HPMC or 10% solutol in 0.5% hydoxypropyl methylcellulose (HPMC). Solutions were prepared to provide the final dose in a volume of 2.5 mL/kg or 5 mL/kg p.o. for rats. Male, Sprague-Dawley rats from Charles Rivers Laboratories (Portage, Me.), weighing between 250 and 350 grams at the time of study, were used for the CFA paw radiant heat studies.
# Rats in the CFA study were moved to a testing room the day of the CFA injection, where they remained for the duration of the study. […]
# On the day of study, rats were given a 100 μL (1 μg/μL) intraplantar injection of CFA (1:1 CFA:saline) into their left hindpaw. […] Percent Reversal of hyperalgesia was calculated for each animal as [(treatment response)−(post-CFA response)]/[(pre-CFA response)−(post-CFA response)]×100. Average % reversal of hyperalgesia was then calculated for each treatment group (n=5-6 rats/group). […]
# [2] = tested on: mechanical (tactile) allodynia after L5 nerve ligation; assay: Rat Chung Model of Neuropathic Pain (Example 14); format: in vivo, Sprague Dawley rats
# Excerpt: The rat Chung model is an assay used in determining whether a compound is useful for the treatment of neuropathic pain (Kim and Chung, 1994; Chaplan et al., 1994).
# In this study, male Sprague Dawley rats (145-165 g; Harlan) were anesthetized and the L5 nerve was isolated and ligated with silk suture material resulting in mechanical allodynia. […] The results were normalized and results are presented as % MPE ([…]) of the drug.
# [3] = tested on: acetic acid-induced abdominal stretching; assay: Acetic Acid-induced Abdominal Constriction Model of Visceral Pain; format: in vivo, CD-1 mice; conditions: 560 mg/kg oral; for number of abdominal stretches: not statistically significant (vehicle 13 to 16.2)
# Protocol: The purpose of this assay was to determine whether Compound #8 reverses hypersensitivity in visceral, inflammatory and neuropathic models of pain.
# Test compound and controls were dissolved in the appropriate volume of 0.5% HPMC or 10% solutol in 0.5% hydoxypropyl methylcellulose (HPMC). HPMC served as the vehicle for preparation of gabapentin solutions used as the positive control. Solutions were prepared to provide the final dose in a volume of 10 mL/kg orally (p.o.) for mice. Male CD-1 mice from Charles Rivers Laboratories (Portage, Me.), weighing between 25 and 30 grams at the time of study, were used for the acetic acid-induced abdominal stretching studies.
# Mice in the acetic acid-induced abdominal stretching study were allowed 1 hr to acclimate to the testing room before the start of the study. Animals were housed in micro-isolator cages in groups of four rats per cage or 5 mice per cage with corncob bedding and free access to food and water. The environment was maintained at a constant temperature of 21° C., with a 12-hour light/dark cycle.
# Animals used in the acetic acid-induced abdominal stretching test were maintained with original cage mates throughout the study period (four rats per cage, 5 mice per cage; cages were Nalgene® with corn cob bedding). Animals from several cages were randomly assigned across treatment groups; that is, mice in a given cage were pseudo-randomly assigned to different treatment groups. In all tests, the investigator performing the behavioral analysis was blinded to the treatment administered to any individual animal.
# Mice were then given an i.p injection of 0.5 mL (2×0.25 mL/abdominal quadrant) of 0.6% acetic acid following 1 hr, 2 hrs, 3 hrs or 4 hours treatment with vehicle, compound or positive control. Five minutes after i.p acetic acid injection, 5 animals were placed into separate bell jars containing a small amount of bedding chips, and the number of abdominal stretches per animal was recorded for 5 minutes. This was repeated for each group (N=10 mice/group). […]
Structure (SMILES),peak reversal of thermal hypersensitivity (compared with the 24-hr post-CFA baseline) [1],time at which efficacy peaked ([2]; 120 mg/kg p.o.),time at which efficacy was observed ([2]; 120 mg/kg p.o.),time post-dosing at which efficacy was sustained ([2]; 120 mg/kg p.o.),"time at which efficacy peaked ([2]; 240 mg/kg, po)","time at which efficacy was observed ([2]; 240 mg/kg, po)","time post-dosing at which efficacy was sustained ([2]; 240 mg/kg, po)",effect on acetic acid-induced stretching ([3]; compared with vehicle- or gabapentin-treated mice),effect of positive control on mechanical allodynia ([2]; 480 mg/kg p.o.),number of abdominal stretches ([3]; 2 hr after administration),number of abdominal stretches ([3]; 3 hr after administration)
"NS(=O)(=O)NC[C@H]1COc2cc(Cl)ccc2O1 [Compound #8, (2S)-(−)-N-(6-Chloro-2,3-dihydro-benzo[1,4]dioxin-2-ylmethyl)-sulfamide]",86.0%,1 h,30 min,4 h,2 to 4 h,30 min,24 h,did not significantly modify acetic acid-induced stretching,–,–,–
"NCC1(CC(=O)O)CCCCC1 [gabapentin, reference compound]",68.6%,–,–,–,–,–,–,–,equivalent to the activity measured for Compound #8 at 240 mg/kg dosing,11.00±1.5 stretches,10.0±1.6 stretches

# Source: patent US8716231B2, “Use of benzo-fused heterocycle sulfamide derivatives for the treatment of pain” (Janssen Pharmaceutica NV, priority 2005, dated 2014)
